Laboratory results from patent EP0975604B1, “PYRIDAZINONES AS INHIBITORS OF CYCLOOXYGENASE-2” (MERCK FROSST CANADA & CO., priority 1997, dated 1998).

Columns and labels:
[1] = molecular target: T1, COX-1 (Homo sapiens, UniProt P23219); assay: Assay of COX-1 activity from U937 cell microsomes; assay type: biochemical; parameters: endogenous in cells; host or cells: U937 cells, 100,000 x g microsomal pellet; settings: PGE2, read-out: COX-1 (IC50 µM) U-937
Method: U 937 cells are pelleted by centrifugation at 500 x g for 5 min and washed once with phosphate-buffered saline and repelleted. Cells are resuspended in homogenization buffer consisting of 0.1 M Tris-HCl, pH 7.4, 10 mM EDTA, 2 µg/ml leupeptin, 2 µg/ml soybean trypsin inhibitor, 2 µg/ml aprotinin and 1 mM phenyl methyl sulfonyl fluoride. The cell suspension is sonicated 4 times for 10 sec and is centrifuged at 10,000 x g for 10 min at 4° C. The supernatant is centrifuged at 100,000 x g for 1 hr at 4 °C. The 100,000 x g microsomal pellet is resuspended in 0.1 M Tris-HCl, pH 7.4, 10 mM EDTA to approximately 7 mg protein/ml and stored at -80° C.
Assays are performed in duplicate in a final volume of 250 µl. Initially, 5 µl of DMSO vehicle or drug in DMSO are added to 20 µl of 0.1 M Tris-HCl buffer, pH 7.4 containing 10 mM EDTA in wells of a 96-deepwell polypropylene titre plate. 200 µl of the microsomal preparation are then added and pre-incubated for 15 min at room temperature before addition of 25 µl of […] arachidonic acid in […] Tris-HCl and 10 mM EDTA, pH 7.4. Samples are incubated for 40 min at room temperature and the reaction is stopped by the addition of 25 µl of 1 N HCl. Samples are neutralized with 25 µl of 1 N NaOH prior to quantitation of PGE2 content by radioimmunoassay (Dupont-NEN or Amersham assay kits). Cyclooxygenase activity is defined as the difference between PGE2 levels in samples incubated in the presence of arachidonic acid and ethanol vehicle.
(§1) In the assay, inhibition is determined by measuring the amount of prostaglandin E2 (PGE2) synthesized in the presence of arachidonic acid, cyclooxygenase-1 or cyclooxygenase-2 and a putative inhibitor.

[2] = molecular target: T2, COX-2 (Homo sapiens, UniProt P35354); assay: Human whole blood assay, COX-2 (LPS-induced PGE2 production); assay type: cell-based; settings: 24 hours at 37°C, read-out: COX-2 (IC50 µM) HWB
T2 construct: endogenous in cells; host or cells: fresh heparinized human whole blood from volunteers, induced with LPS
T2 sequence (P35354 18-604): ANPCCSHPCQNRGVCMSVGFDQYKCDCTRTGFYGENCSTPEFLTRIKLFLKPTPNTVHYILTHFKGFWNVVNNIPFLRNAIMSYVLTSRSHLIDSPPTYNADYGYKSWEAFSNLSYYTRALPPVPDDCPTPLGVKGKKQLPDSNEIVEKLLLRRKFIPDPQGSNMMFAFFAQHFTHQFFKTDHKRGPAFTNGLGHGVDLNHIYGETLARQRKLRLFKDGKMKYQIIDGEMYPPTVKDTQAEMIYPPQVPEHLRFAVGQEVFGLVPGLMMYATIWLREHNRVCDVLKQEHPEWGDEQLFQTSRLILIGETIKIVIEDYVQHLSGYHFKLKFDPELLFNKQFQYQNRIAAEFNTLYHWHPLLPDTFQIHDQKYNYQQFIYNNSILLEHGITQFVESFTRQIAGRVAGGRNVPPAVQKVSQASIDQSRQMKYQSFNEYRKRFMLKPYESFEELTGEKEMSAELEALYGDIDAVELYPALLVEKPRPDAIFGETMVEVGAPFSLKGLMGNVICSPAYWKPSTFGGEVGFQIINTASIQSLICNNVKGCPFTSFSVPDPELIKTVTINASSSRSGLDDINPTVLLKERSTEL
Excerpt: (§2) As well, platelets in whole blood contain a large amount of the COX-1 enzyme. Immediately following blood clotting, platelets are activated through a thrombin-mediated mechanism. This reaction results in the production of thromboxane B2 (TxB2) via activation of COX-1. Thus, the effect of test compounds on TxB2 levels following blood clotting can be examined and used as an index for COX-1 activity. Therefore, the degree of selectivity by the test compound can be determined by measuring the levels of PGE2 after LPS induction (COX-2) and TxB2 following blood clotting (COX-1) in the same assay.
Fresh blood is collected in heparinized tubes by venipuncture from both male and female volunteers. The subjects have no apparent inflammatory conditions and have not taken any NSAIDs for at least 7 days prior to blood collection. Plasma is immediately obtained from a 2mL blood aliquot to use as blank (basal levels of PGE2).

[3] = molecular target: T2, COX-2; assay: Whole cell assay for COX-2 using CHO transfected cell line (CHO [hCOX-2]); assay type: cell-based; settings: CHO[hCOX-2] cells, 10 µM AA, PGE2 synthesis
Method: Chinese hamster ovary (CHO) cell lines which have been stably transfected with an eukaryotic expression vector pCDNAIII containing either the human COX-1 or COX-2 cDNA's are used for the assay. These cell lines are referred to as CHO [hCOX-1] and CHO [hCOX-2], respectively. […] Cells (0.3 x 10^6 cells in 200 µl) are preincubated with 3 µl of the test drug or DMSO vehicle for 15 min at 37°C. […] Cells are then challenged in the presence or absence of drug with the AA/HBSS solution to yield a final concentration of 0.5 µM AA in the CHO[hCOX-1] assay and a final concentration of 10 µM AA in the CHO[hCOX-2] assay. […] The samples are centrifuged at 300 x g at 4°C for 10 min, and an aliquot of the clarified supernatant is appropriately diluted for the determination of PGE2 levels using an enzyme-linked immunoassay for PGE2 (Correlate PGE2 enzyme immunoassay kit, Assay Designs, Inc.). Cyclooxygenase activity in the absence of test compounds is determined as the difference in PGE2 levels of cells challenged with arachidonic acid versus the PGE2 levels in cells mock-challenged with ethanol vehicle. Inhibition of PGE2 synthesis by test compounds is calculated as a percentage of the activity in the presence of drug versus the activity in the positive control samples.
as §1

[4] = molecular target: T1, COX-1; assay: Human whole blood assay, COX-1 (clotting-induced TxB2 production); assay type: cell-based; parameters: endogenous in cells; host or cells: platelets in fresh human whole blood left to clot; settings: 1 hour at 37°C, read-out: COX-1 (IC50 µM) HWB
Method: as §2, with “Human whole blood provides a protein and cell-rich milieu appropriate for the study of biochemical efficacy of anti-inflammatory compounds such as selective COX-2 inhibitors. […] This is consistent with the observation that COX-2 inhibitors have no effect on PGE2 production in normal blood. These inhibitors are active only after incubation of human whole blood with LPS, which induces COX-2. This assay can be used to evaluate the inhibitory effect of selective COX-2 inhibitors on PGE2 production. As” for “As”
Fresh blood is collected into vacutainers containing no anticoagulants. Aliquots of 500µL are immediately transferred to siliconized microcentrifuge tubes preloaded with 2µL of either DMSO or a test compound at final concentrations varying from 10nM to 30µM. […]

T1 sequence (P23219 24-599): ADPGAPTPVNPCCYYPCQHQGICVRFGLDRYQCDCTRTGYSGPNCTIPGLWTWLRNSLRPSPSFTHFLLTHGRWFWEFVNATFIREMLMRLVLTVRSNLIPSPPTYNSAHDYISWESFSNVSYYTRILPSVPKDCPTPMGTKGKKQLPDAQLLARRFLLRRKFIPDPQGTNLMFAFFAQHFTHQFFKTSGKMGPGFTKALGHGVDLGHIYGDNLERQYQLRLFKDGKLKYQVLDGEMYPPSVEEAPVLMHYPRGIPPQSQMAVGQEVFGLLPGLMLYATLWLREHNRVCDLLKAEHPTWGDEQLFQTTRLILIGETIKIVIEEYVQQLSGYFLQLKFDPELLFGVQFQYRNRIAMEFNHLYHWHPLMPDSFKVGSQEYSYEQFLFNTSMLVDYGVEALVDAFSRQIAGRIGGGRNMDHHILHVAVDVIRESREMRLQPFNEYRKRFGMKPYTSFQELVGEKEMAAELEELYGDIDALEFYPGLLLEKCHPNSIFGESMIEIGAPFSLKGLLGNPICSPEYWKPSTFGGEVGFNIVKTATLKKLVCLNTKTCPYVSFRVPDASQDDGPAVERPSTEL

Row | Structure (SMILES) | IC50 [1] | IC50 [2] | IC50 [3] | IC50 [4]
1 | Cn1ncc(-c2ccc(S(C)(=O)=O)cc2)c(-c2ccccc2)c1=O [Example 2, 2-Methyl-5-(4-methylsulfonyl)phenyl-4-phenyl-2H-pyridazin-3-one] | – | 21 µM | 0.7 µM | –
2 | CC(C)n1ncc(-c2ccc(S(C)(=O)=O)cc2)c(-c2ccccc2)c1=O [Example 6, 2-Isopropyl-5-(4-methylsulfonyl)phenyl-4-phenyl-2H-pyridazin-3-one] | > 10 µM | 2.6 µM | 0.6 µM | –
3 | CS(=O)(=O)c1ccc(-c2cnn(CC3CC3)c(=O)c2-c2ccccc2)cc1 [Example 3, 2-Cyclopropylmethyl-5-(4-methylsulfonyl)phenyl-4-phenyl-2H-pyridazin-3-one] | > 10 µM | 1.3 µM | 0.07 µM | –
4 | CS(=O)(=O)c1ccc(-c2cnn(CC3CC3)c(=O)c2-c2ccc(F)c(F)c2)cc1 [Example 7, 2-Cyclopropylmethyl-4-(3,4-difluorophenyl)-5-(4-methylsulfonyl)phenyl-2H-pyridazin-3-one] | > 10 µM | 3.2 µM | 0.16 µM | –
5 | CS(=O)(=O)c1ccc(-c2cnn(Cc3ccc(F)cc3)c(=O)c2-c2ccccc2)cc1 [Example 10, 2-(4-Fluorobenzyl)-5-(4-methylsulfonyl)phenyl-4-phenyl-2H-pyridazin-3-one] | > 10 µM | 0.9 µM | 0.17 µM | –

More lines, now with the values ahead:

Row | IC50 [1] | IC50 [2] | IC50 [3] | IC50 [4] | Structure (SMILES)
6 | 3 to 10 µM | 1.9 µM | 0.04 µM | – | CS(=O)(=O)c1ccc(-c2cnn(Cc3ccccc3)c(=O)c2-c2ccc(F)c(F)c2)cc1 [Example 9, 2-Benzyl-4-(3,4-difluorophenyl)-5-(4-methylsulfonyl)phenyl-2H-pyridazin-3-one]
7 | > 10 µM | – | – | > 50 µM | CS(=O)(=O)c1ccc(-c2cnn(Cc3ccccc3)c(=O)c2-c2ccccc2)cc1 [Example 5, 2-Benzyl-5-(4-methylsulfonyl)phenyl-4-phenyl-2H-pyridazin-3-one]
8 | > 10 µM | 9.2 µM | 5 µM | – | COC(=O)Cn1ncc(-c2ccc(S(C)(=O)=O)cc2)c(-c2ccccc2)c1=O [Example 11, 2-Carbomethoxymethyl-5-(4-methylsulfonyl)phenyl-4-phenyl-2H-pyridazin-3-one]
9 | – | 4.7 µM | 0.08 µM | – | CS(=O)(=O)c1ccc(-c2cnn(-c3ccccc3)c(=O)c2-c2ccccc2)cc1 [Example 1, 5-(4-Methylsulfonyl)phenyl-2-phenyl-4-phenyl-2H-pyridazin-3-one]
10 | > 10 µM | 11.1 µM | 0.5 µM | – | CS(=O)(=O)c1ccc(-c2cnn(CC(F)(F)F)c(=O)c2-c2ccccc2)cc1 [Example 4, 5-(4-Methylsulfonyl)phenyl-4-phenyl-2-(2,2,2-trifluoroethyl)-2H-pyridazin-3-one]
11 | > 10 µM | > 33 µM | ~2 µM | – | CS(=O)(=O)c1ccc(-c2cnn(Cc3ccccn3)c(=O)c2-c2ccccc2)cc1 [Example 8, 5-(4-Methylsulfonyl)phenyl-4-phenyl-2-(2-pyridylmethyl)-2H-pyridazin-3-one]
12 | 3 to 10 µM | – | – | – | CS(=O)(=O)c1ccc(-c2cnn(Cc3ccccc3)c(=O)c2-c2ccc(F)cc2)cc1 [Example 12, 2-Benzyl-4-(4-fluorophenyl)-5-(4-methylsulfonyl)phenyl-2H-pyridazin-3-one]
